According to patent US6716880B2, “Compounds for the treatment of estrogen-dependent illnesses and methods for making and using the same” (Duquesne University of the Holy Ghost, priority 1998, dated 2004):

Assays:
estrone sulfatase = biological target: T1, estrone sulfatase (Rattus norvegicus, UniProt P15589); experiment: Rat liver microsome sulfatase assay (Lineweaver-Burk); type: biochemical; conditions: rat liver microsomes
T1 construct: using rat liver microcosm as a source of sulfatase; from tissue; host or cells: rat liver microsomal fraction (juvenile female Sprague-Dawley rats)
T1 sequence (P15589 20-577): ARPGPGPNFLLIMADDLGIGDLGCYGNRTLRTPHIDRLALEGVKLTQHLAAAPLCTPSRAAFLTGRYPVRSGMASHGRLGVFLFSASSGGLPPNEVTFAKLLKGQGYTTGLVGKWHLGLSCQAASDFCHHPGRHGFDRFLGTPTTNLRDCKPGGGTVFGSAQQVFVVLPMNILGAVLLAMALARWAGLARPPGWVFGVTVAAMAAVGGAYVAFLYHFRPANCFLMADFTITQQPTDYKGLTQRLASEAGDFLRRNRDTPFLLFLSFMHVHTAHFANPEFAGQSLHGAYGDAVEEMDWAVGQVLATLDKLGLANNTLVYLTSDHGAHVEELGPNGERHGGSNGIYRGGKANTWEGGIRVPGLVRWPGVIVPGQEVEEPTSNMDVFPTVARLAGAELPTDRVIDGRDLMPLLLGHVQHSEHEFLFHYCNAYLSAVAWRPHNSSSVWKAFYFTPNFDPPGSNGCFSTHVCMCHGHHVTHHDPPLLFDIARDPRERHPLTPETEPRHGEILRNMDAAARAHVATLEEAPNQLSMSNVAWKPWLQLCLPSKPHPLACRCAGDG
Procedure: Livers, obtained from juvenile female Sprague-Dawley rats, were minced with scissors in ice-cold 0.25M Tris-sucrose buffer (1:2 w:v) and homogenized with a Tissue Tearor using three 30 sec bursts. The nuclear fraction was pelleted by centrifugation at 1500×g for 15 min at 4° C. The supernatant was decanted and centrifuged at 10,000×g for 30 min at 4° C. to pellet the mitochondrial fraction. The resulting supernatant was removed and centrifuged at 100,000×g to yield the microsomal fraction. The microsomal pellet was resuspended in 50 mM Tris-HCl buffer (1:5 w:v) and protein from the microsomal suspension was determined by using the BCA assay.
^3H-estrone sulfate (53 Ci/mmol) was diluted in 50 mM Tris-HCl buffer and 50 μl (140,000 dpm) of the solution were added to all assay tubes. Radioinert estrone sulfate was dissolved in ethanol and then diluted into 50 mM Tris-HCl buffer. To achieve final concentrations of estrone sulfate, 100 μl of desired concentrations were added to the assay tubes. Compounds prepared according to Example 1 were dissolved in ethanol and then diluted in 50 mM Tris-HCl buffer. […] Product formation for samples containing an inhibitor was compared to that of the control samples, and data for Km and Ki were assessed through Michaelis Menten and Lineweaver-Burk calculations.

[1] = biological target: T2, estrone sulfatase in MDA-MB-231 breast cancer cells (Homo sapiens, UniProt P08842); experiment: Intact breast cancer cell estrone sulfatase assay; type: cell-based; conditions: intact MDA-MB-231 cells, 18 h incubation
T2 construct: using intact monolayers of MDA-MB-231 breast cancer cells; endogenous in cells; host or cells: MDA-MB-231 breast cancer cells
T2 sequence (P08842 22-583): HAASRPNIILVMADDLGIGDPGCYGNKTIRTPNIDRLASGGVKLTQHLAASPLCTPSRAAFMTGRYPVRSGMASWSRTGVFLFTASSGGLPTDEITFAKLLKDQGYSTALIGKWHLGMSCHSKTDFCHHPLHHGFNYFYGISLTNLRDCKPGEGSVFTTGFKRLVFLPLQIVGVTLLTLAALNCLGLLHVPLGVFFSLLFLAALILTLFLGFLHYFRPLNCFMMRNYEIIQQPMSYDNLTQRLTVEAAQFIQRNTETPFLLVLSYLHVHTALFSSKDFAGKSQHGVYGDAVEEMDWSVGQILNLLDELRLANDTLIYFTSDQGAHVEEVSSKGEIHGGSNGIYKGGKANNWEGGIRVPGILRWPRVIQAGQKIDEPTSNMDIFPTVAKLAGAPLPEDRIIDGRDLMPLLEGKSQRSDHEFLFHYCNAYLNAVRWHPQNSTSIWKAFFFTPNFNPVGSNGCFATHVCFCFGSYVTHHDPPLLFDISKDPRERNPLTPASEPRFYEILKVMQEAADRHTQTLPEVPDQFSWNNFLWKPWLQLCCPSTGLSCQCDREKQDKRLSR
Procedure: The ability of the compound prepared according to Example 1 to block hydrolysis of estrone sulfate was examined using intact monolayers of MDA-MB-231 breast cancer cells.
MDA-MB-231 cells were plated into 6-well dishes at approximately 1×10^6 cells/well in growth medium and incubated at 37° C. overnight to facilitate adherence to the plates. The growth medium contained 0.2% (v/v) sodium bicarbonate, 5% heat-inactivated fetal-calf serum, […] gentamicin, and 1% (v/v) antibiotic/antimycotic. Following incubation, growth medium was removed and replaced with growth medium containing ^3H-estrone sulfate (100,000 dpm/ml), with or without the compound of Example 1 (10 μM). Cells were incubated for 18 h, then plates were cooled for 15 min. Medium from each well (500 μL) was aliquoted into 16×100 mm tubes. Three mls of toluene were added to each tube for extraction of unconjugated steroids. The tubes were vortexed for 1 min and then centrifuged at 2500×g for 5 min to separate the aqueous and organic phases. One mL of the organic phase (containing radiolabeled unconjugated steroids) was transferred to scintillation vials and 5 ml scintillation cocktail was added. Total radioactivity was counted using a Packard Tri-carb scintillation counter at 50% efficiency for ^3H. All extractions were performed in duplicate and all treatments were run in triplicate. […]

Ki (estrone sulfatase; double reciprocal plot, fixed inhibitor concentration 10 μM): ~17 µM | type of inhibition (estrone sulfatase; maximum velocity unchanged, Km increased): competitive inhibitor | inhibition at 10 µM [1]: ~50%
Structure (SMILES): CC/C(=C(/c1ccc(OCCN(C)C)cc1)c1ccc(OS(N)(=O)=O)cc1)c1ccccc1 [tamoxifen sulfamate, (Z)-4-Hydroxytamoxifen Sulfamate]
